Here are results for 23 compounds from patent US9221835B2, “Spirocyclic derivatives as antiparasitic agents” (Zoetis Services LLC, priority 2012, dated 2015).

Counter-ions that a name gives are not always drawn.

Common to all, as to format: in vivo
The test system of assay [1] is Mosquito (Aedes aeqypti) larvae. Nature of the assay: Mosquito (Aedes aeqypti) Larval Assay. The following applies: first instar larvae, 25° C., 24 hours, lowest dose to inhibit motility ≧50% of untreated controls, half-log intervals, read-out: Minimum Effective Concentration (MEC). On the procedure: Mosquito (Aedes aeqypti) Larval Assay
Compounds were dissolved in DMSO and aliquots were spotted to empty wells. First instar mosquito larvae and maintenance media were added to the wells to obtain between 8 and 15 larvae per well in the appropriate final assay volume. Larvae were incubated in the treated media at 25° C. for 24 hours. Mosquito larvae motility was measured at 24 hours. Each compound was tested at half-log intervals, and endpoint results were recorded as Minimum Effective Concentration (MEC) in μM. MEC is an objective assessment of organism motility, and is the lowest dose to inhibit motility ≧50% of untreated controls.

The test system of assay [2] is Flea (Ctenocephalides felis). Nature of the assay: Flea (Ctenocephalides felis) Membrane Feed Assay-Adult. To be noted: adult fleas fed on treated citrated bovine blood for 24 hours, lowest dose to cause mortality ≧50%, half-log intervals, read-out: Minimum Effective Concentration (MEC). On the procedure: Flea (Ctenocephalides felis) Membrane Feed Assay-Adult
Compounds were dissolved in DMSO and aliquots were added to citrated bovine blood in membrane covered wells warmed to 37° C. Adult fleas were newly emerged (3-7 days) and unfed. Feeding wells containing approximately 10 adult fleas were placed onto the treated blood wells, and the fleas were allowed to feed on the treated blood for 24 hours. […] Each compound was tested at half-log intervals, and endpoint data was recorded as Minimum Effective Concentration in μM. MEC is a subjective visual assessment of organism viability, and is the lowest dose to cause mortality ≧50%.

Assay [3] concerns Soft Tick (Ornithidorus turicata). Nature of the assay: Soft Tick (Ornithidorus turicata) Blood Feed Assay. The following applies: nymph stage ticks fed on treated citrated bovine blood; paralysis and/or death observed at approximately 24, 48 and 72 hours. The protocol: Soft Tick (Ornithidorus turicata) Blood Feed Assay
Compounds of the present invention were dissolved in dimethylsulfoxide (DMSO) and aliquots added to citrated bovine blood in a membrane covered Petri dish. The Petri dish is placed on a warming tray. Approximately 5 nymph stage ticks are placed onto the membrane, covered, and left to feed. Fed ticks are removed and placed into a Petri dish with sand. […] Endpoint data was recorded as a 100% lethal dose (LD^100) in μg/mL.

Turning to `CC(C)C(=O)N1CC2(C1)OCc1cc(C3=NCC(c4cc(Cl)c(Cl)c(Cl)c4)(C(F)(F)F)C3)ccc12` (centres unmarked) [Example 2, 2-methyl-1-(5′-(3-(3,4,5-trichlorophenyl)-3-(trifluoromethyl)-3,4-dihydro-2H-pyrrol-5-yl)-3′H-spiro[azetidine-3,1′-isobenzofuran]-1-yl)propan-1-one], in assay [1], the minimal effective concentration was 0.1 µM.

As to `CS(=O)(=O)CC(=O)N1CC2(C1)OCc1cc(C3=NCC(c4cc(Cl)c(F)c(Cl)c4)(C(F)(F)F)C3)ccc12` (centres unmarked) [Example 3, 1-(5′-(3-(3,5-dichloro-4-fluorophenyl)-3-(trifluoromethyl)-3,4-dihydro-2H-pyrrol-5-yl)-3′H-spiro[azetidine-3,1′-isobenzofuran]-1-yl)-2-(methylsulfonyl)ethanone], the minimal effective concentration in assay [1] was 0.03 µM. With `CC(C)C(=O)N1CC2(C1)OCc1cc(C3=NCC(c4cc(Cl)c(F)c(Cl)c4)(C(F)(F)F)C3)ccc12` (centres unmarked) [Example 4, 1-(5′-(3-(3,5-dichloro-4-fluorophenyl)-3-(trifluoromethyl)-3,4-dihydro-2H-pyrrol-5-yl)-3′H-spiro[azetidine-3,1′-isobenzofuran]-1-yl)-2-methyl propan-1-one], in assay [1], the minimal effective concentration was determined as 0.1 µM. Turning to `CS(=O)(=O)CC(=O)N1CC2(C1)OCc1cc(C3=NCC(c4cc(Cl)cc(Cl)c4)(C(F)(F)F)C3)ccc12` (centres unmarked) [Example 5, 1-(5′-(3-(3,5-dichlorophenyl)-3-(trifluoromethyl)-3,4-dihydro-2H-pyrrol-5-yl)-3′H-spiro[azetidine-3,1′-isobenzofuran]-1-yl)-2-(methylsulfonyl)ethanone], the minimal effective concentration in assay [1] was 0.03 µM; in assay [2] it was 0.3 µM.

Take `CS(=O)(=O)CC(=O)N1CC2(C1)OCc1cc(C3=COC(c4cc(Cl)cc(Cl)c4)(C(F)(F)F)C3)ccc12` (centres unmarked) [Example 7, 5′-[5-(3,5-dichlorophenyl)-5-(trifluoromethyl)-4,5-dihydrofuran-3-yl]-1-[(methylsulfonyl)acetyl]-3′H-spiro[azetidine-3,1′-[2]benzofuran]]: in assay [1], the minimal effective concentration was above 3 µM. Turning to `CC(C)C(=O)N1CC2(C1)OCc1cc(C3=COC(c4cc(Cl)cc(Cl)c4)(C(F)(F)F)C3)ccc12` (centres unmarked) [Example 8, 5′-[5-(3,5-dichlorophenyl)-5-(trifluoromethyl)-4,5-dihydrofuran-3-yl]-1-isobutyryl-3′H-spiro[azetidine-3,1′-[2]benzofuran]], the minimal effective concentration in assay [1] was above 3 µM. On the same count and under the same terms, with `CS(=O)(=O)CC(=O)N1CC2(C1)OCc1cc(C3=COC(c4cc(Cl)c(Cl)c(Cl)c4)(C(F)(F)F)C3)ccc12` (centres unmarked) [Example 9, 2-(methylsulfonyl)-1-(5′-(5-(3,4,5-trichlorophenyl)-5-(trifluoromethyl)-4,5-dihydrofuran-3-yl)-3′H-spiro[azetidine-3,1′-isobenzofuran]-1-yl)ethanone] the figure was above 3 µM. Regarding `CC(C)C(=O)N1CC2(C1)OCc1cc(C3=COC(c4cc(Cl)c(Cl)c(Cl)c4)(C(F)(F)F)C3)ccc12` (centres unmarked) [Example 10], the minimal effective concentration in assay [1] was above 3 µM.

Take `CS(=O)(=O)CC(=O)N1CC2(C1)OCc1cc(C3=COC(c4cc(Cl)c(F)c(Cl)c4)(C(F)(F)F)C3)ccc12` (centres unmarked) [Example 11, 5′-[5-(3,5-dichloro-4-fluorophenyl)-5-(trifluoromethyl)-4,5-dihydrofuran-3-yl]-1-[(methylsulfonyl)acetyl]-3′H-spiro[azetidine-3,1′-[2]benzofuran]]: in assay [1], the minimal effective concentration is above 3 µM. On to `CC(C)C(=O)N1CC2(C1)OCc1cc(C3=COC(c4cc(Cl)c(F)c(Cl)c4)(C(F)(F)F)C3)ccc12` (centres unmarked) [Example 12, 5′-[5-(3,5-dichloro-4-fluorophenyl)-5-(trifluoromethyl)-4,5-dihydrofuran-3-yl]-1-isobutyryl-3′H-spiro[azetidine-3,1′-[2]benzofuran]], for which the minimal effective concentration in assay [1] was above 3 µM.

As to `CN1N=C(c2ccc3c(c2)COC32CN(C(=O)CS(C)(=O)=O)C2)CC1(c1cc(Cl)c(F)c(Cl)c1)C(F)(F)F` (centres unmarked) [Example 14, 1-(5′-(5-(3,5-dichloro-4-fluorophenyl)-1-methyl-5-(trifluoromethyl)-4,5-di hydro-1H-pyrazol-3-yl)-3′H-spiro[azetidine-3,1′-isobenzofuran]-1-yl)-2-(methylsulfonyl)ethanone], in assay [3], the “100% lethal dose (LD100)” value was found to be 0.1 µg/mL. In addition, the minimal effective concentration in assay [2] was at least 3 µM. For `CC(C)C(=O)N1CC2(C1)OCc1cc(C3=NNC(c4cc(Cl)c(F)c(Cl)c4)(C(F)(F)F)C3)ccc12` (centres unmarked) [Example 15, 1-(5′-(5-(3,5-dichloro-4-fluorophenyl)-5-(trifluoromethyl)-4,5-dihydro-1H-pyrazol-3-yl)-3′H-spiro[azetidine-3,1′-isobenzofuran]-1-yl)-2-methylpropan-1-one], in that order: 0.03 µg/mL and at least 3 µM. Turning to `CC(C)C(=O)N1CC2(C1)OCc1cc(C3=NN(C)C(c4cc(Cl)c(F)c(Cl)c4)(C(F)(F)F)C3)ccc12` (centres unmarked) [Example 16, 1-(5′-(5-(3,5-dichloro-4-fluorophenyl)-1-methyl-5-(trifluoromethyl)-4,5-dihydro-1H-pyrazol-3-yl)-3′H-spiro[azetidine-3,1′-isobenzofuran]-1-yl)-2-methylpropan-1-one], in assay [3], the “100% lethal dose (LD100)” value is 0.03 µg/mL. In assay [2], the minimal effective concentration amounted to 1 µM. In the case of `CC(C)C(=O)N1CC2(C1)OCc1cc(C3=NNC(c4cc(Cl)c(Cl)c(Cl)c4)(C(F)(F)F)C3)ccc12` (centres unmarked) [Example 17], the minimal effective concentration in assay [2] is at least 3 µM. On to `CS(=O)(=O)CC(=O)N1CC2(C1)OCc1cc(C3=NNC(c4cc(Cl)c(Cl)c(Cl)c4)(C(F)(F)F)C3)ccc12` (centres unmarked) [Example 18, 2-(methylsulfonyl)-1-(5′-(5-(3,4,5-trichlorophenyl)-5-(trifluoromethyl)-4,5-dihydro-1H-pyrazol-3-yl)-3′H-spiro[azetidine-3,1′-isobenzofuran]-1-yl)ethanone hydrochloride], for which the minimal effective concentration in assay [2] is at least 3 µM. `CC(C)C(=O)N1CC2(C1)OCc1cc(C3=NNC(c4cc(Cl)cc(Cl)c4)(C(F)(F)F)C3)ccc12` (centres unmarked) [Example 19, 1-(5′-(5-(3,5-dichlorophenyl)-5-(trifluoromethyl)-4,5-dihydro-1H-pyrazol-3-yl)-3′H-spiro[azetidine-3,1′-isobenzofuran]-1-yl)-2-methylpropan-1-one hydrochloride]: the minimal effective concentration in assay [1] was 0.1 µM; in assay [2], at least 3 µM. Consider `CS(=O)(=O)CC(=O)N1CC2(C1)OCc1cc(C3=NNC(c4cc(Cl)cc(Cl)c4)(C(F)(F)F)C3)ccc12` (centres unmarked) [Example 20], for which the minimal effective concentration is 0.1 µM in assay [1] and at least 3 µM in assay [2]. On to `CC(C)C(=O)N1CC2(C1)OCc1cc(N3CCC(c4cc(Cl)c(F)c(Cl)c4)(C(F)(F)F)C3)ccc12` (centres unmarked) [Example 21], for which the “100% lethal dose (LD100)” value in assay [3] amounted to 0.01 µg/mL. The minimal effective concentration in assay [2] is at least 3 µM.

Turning to `CC(C)C(=O)N1CC2(C1)OCc1cc(N3CCC(c4cc(Cl)cc(Cl)c4)(C(F)(F)F)C3)ccc12` (centres unmarked) [Example 24], the figures for the minimal effective concentration in assay [1] and in assay [2] were above 3 µM and at least 3 µM, respectively.

With `CC(C)C(=O)N1CC2(C1)OCc1cc(N3CCC(c4cc(Cl)c(Cl)c(Cl)c4)(C(F)(F)F)C3)ccc12` (centres unmarked) [Example 25], the minimal effective concentration was above 3 µM in assay [1] and at least 3 µM in assay [2]. For `CS(=O)(=O)CC(=O)N1CC2(C1)OCc1cc(C3=NOC(c4cc(Cl)c(F)c(Cl)c4)(C(F)(F)F)O3)ccc12` (centres unmarked) [Example 27, 1-(5′-(5-(3,5-dichloro-4-fluorophenyl)-5-(trifluoromethyl)-1,4,2-dioxazol-3-yl)-3′H-spiro[azetidine-3,1′-isobenzofuran]-1-yl)-2-(methylsulfonyl)ethanone], in that order: above 3 µM and at least 3 µM. For `CS(=O)(=O)CC(=O)N1CC2(C1)OCc1cc(C3=NOC(c4cc(Cl)cc(Cl)c4)(C(F)(F)F)O3)ccc12` (centres unmarked) [Example 29, 1-(5-(5-(3,5-dichlorophenyl)-5-(trifluoromethyl)-1,4,2-dioxazol-3-yl)-3′H-spiro[azetidine-3,1′-isobenzofuran]-1-yl)-2-(methylsulfonyl)ethanone], in that order: above 3 µM and at least 3 µM. Regarding `CS(=O)(=O)CC(=O)N1CC2(C1)OCc1cc(C3=NOC(c4cc(Cl)c(Cl)c(Cl)c4)(C(F)(F)F)O3)ccc12` (centres unmarked) [Example 32, 2-(methylsulfonyl)-1-(5′-(5-(3,4,5-trichlorophenyl)-5-(trifluoromethyl)-1,4,2-dioxazol-3-yl)-3′H-spiro[azetidine-3,1′-isobenzofuran]-1-yl)ethanone], the minimal effective concentration in assay [1] was above 3 µM; in assay [2], at least 3 µM.
